Reference: US4786627A, “Thiadiazole guanidines” (Reckitt & Colman Products Limited, priority 1987, dated 1988)
Read-outs that look alike come from different tables or passages of the source.

Experiments:
[1] = system: maximal metrazol seizures (MMS); test: metrazol antagonism test, maximal metrazol seizures (MMS), inhibition of hind limb tonus, mouse; type: in vivo; conditions: read-out: Inhibition of Hind Limb Tonus ED50 (limits), MOUSE MMS
Method: (§1) The pharmacological activity of the compounds of the invention have been determined according to the following procedures. Their anticonvulsant activity was determined in the metrazol antagonism test in mice (MMS) (Soaje-Echaque E; Lim RKS, J Pharmac Exp Ther 1962, 138, 224; Desmedt LKC; Niemegeers CJE; Lewi PJ; Janssen PAJ, Arzneim-Forsch (Drug Res), 1976, 26, 1592) and the electroshock test in mice (MES)(Tulloch IF; Walter DS; Howe GM; Howe SJ, Neuropharmacology 1982, 21, 555).

[2] = system: maximal electroshock seizures (MES); test: electroshock test, maximal electroshock seizures (MES), inhibition of hind limb tonus, rat; type: in vivo; conditions: read-out: Inhibition of Hind Limb Tonus ED50 (limits), RAT MES
[3] = system: maximal electroshock seizures (MES); test: electroshock test, maximal electroshock seizures (MES), inhibition of hind limb tonus, mouse; type: in vivo; conditions: read-out: Inhibition of Hind Limb Tonus ED50 (limits), MOUSE MES
Method: as §1

[4] = neurotoxicity, rotorod test, mouse; type: in vivo, mice; conditions: in vivo, po
Source text: (§2) ^(a) Dose at which 50% of trained animals fall off the rotorod

[5] = system: trained animals fall off the rotorod; test: neurotoxicity, rotorod test, mouse; type: in vivo, mice; conditions: oral, rotorod
Source text: as §2

[6] = system: electrically and chemically induced seizures; test: anticonvulsant activity in animal tests (electrically and chemically induced seizures); type: in vivo; conditions: rat and mouse, oral
Method: as §1

[7] = mouse, MMS, oral, t=1 hour, limits in parentheses
[8] = rat, MES, oral, t=1 hour, limits in parentheses
[9] = mouse, MES, oral, t=1 hour, limits in parentheses

Row | SMILES | ED50 [1, 7] | ED50 [2, 8] | ED50 [3, 9] | TD50 at 1 h [4] | level of neurotoxicity (in words) [5] | anticonvulsant activity (in words) [6] | ED50 ([1]; Mus musculus, po, 1 h) | ED50 ([2]; Rattus norvegicus, po, 1 h) | ED50 ([3]; Mus musculus, po, 1 h)
1 | O=C1NC(=O)C(c2ccccc2)(c2ccccc2)N1 [phenytoin] | 8 mg/kg | 14 mg/kg | 8 mg/kg | – | – | – | – | – | –
2 | C/N=C(\N)Nc1nnc(-c2ccccc2C(F)(F)F)s1 [Example 2, 2-(3-Methylguanidino)-5-[2-(trifluoromethyl)phenyl]-1,3,4-thiadiazole] | 44 mg/kg | – | 49 mg/kg | > 400 mg/kg | acceptable level | – | – | – | –
3 | Cl.N=C(N)Nc1nnc(-c2ccccc2C(F)(F)F)s1 [Example 1, 2-Guanidino-5-[2-(trifluoromethyl)phenyl]-1,3,4-thiadiazole hydrochloride] | 45 mg/kg | 22 mg/kg | 27 mg/kg | 324 mg/kg | acceptable level | potent anticonvulsants blocking both electrically and chemically induced seizures | – | – | –
4 | CCC1(c2ccccc2)C(=O)NC(=O)NC1=O [phenobarbital] | – | – | – | – | – | – | 4 mg/kg | 9 mg/kg | 12 mg/kg
5 | NC(=O)N1c2ccccc2C=Cc2ccccc21 [carbamazepine] | 11 mg/kg | 4 mg/kg | 20 mg/kg | – | – | – | – | – | –
